Reference: ChEMBL document CHEMBL1142199, “Caenorhabditis elegans as a model to determine fitness of antibiotic-resistant Salmonella enterica serovar typhimurium” (2007)
In brackets after ≈: the same amount, converted by molar mass. Values belong to the compound of their own block, whether it stands above or below them.

Experiments:
Type in all cases: functional, Salmonella enterica subsp. enterica serovar Typhimurium
Salmonella typhimurium [1] = assay: Antimicrobial activity against Salmonella enterica serovar Typhimurium JB393 in Caenorhabditis elegans
Salmonella typhimurium [2] = assay: Antimicrobial activity against Salmonella enterica serovar Typhimurium SMP807 in Caenorhabditis elegans
Salmonella typhimurium [3] = assay: Antimicrobial activity against Salmonella enterica serovar Typhimurium SMP816 in Caenorhabditis elegans
Salmonella typhimurium [4] = assay: Antimicrobial activity against Salmonella enterica serovar Typhimurium DA8325 in Caenorhabditis elegans
Salmonella typhimurium [5] = assay: Antimicrobial activity against Salmonella enterica serovar Typhimurium DA8340 in Caenorhabditis elegans
Salmonella typhimurium [6] = assay: Antimicrobial activity against Salmonella enterica serovar Typhimurium DA8326 in Caenorhabditis elegans
Salmonella typhimurium [7] = assay: Antimicrobial activity against Salmonella enterica serovar Typhimurium JB1850 in Caenorhabditis elegans
Salmonella typhimurium [8] = assay: Antimicrobial activity against Salmonella enterica serovar Typhimurium JB1855 in Caenorhabditis elegans
Salmonella typhimurium [9] = assay: Antimicrobial activity against Salmonella enterica serovar Typhimurium SMP973 in Caenorhabditis elegans
Salmonella typhimurium [10] = assay: Antimicrobial activity against Salmonella enterica serovar Typhimurium SMP972 in Caenorhabditis elegans
Salmonella typhimurium [11] = assay: Antimicrobial activity against Salmonella enterica serovar Typhimurium JB127 in Caenorhabditis elegans

SMILES: CO[C@H]1/C=C/O[C@@]2(C)Oc3c(C)c(O)c4c(O)c(c(/C=N/N5CCN(C)CC5)c(O)c4c3C2=O)NC(=O)/C(C)=C\C=C\[C@H](C)[C@H](O)[C@@H](C)[C@@H](O)[C@@H](C)[C@H](OC(C)=O)[C@@H]1C [RIFAMPIN]
MIC (Salmonella typhimurium [2]): > 256 µg/mL
MIC (Salmonella typhimurium [3]): > 256 µg/mL

SMILES: CCCCC[C@H](CC(=O)NO)C(=O)N[C@H](C(=O)N1CCC[C@H]1CO)C(C)C [ACTINONIN]
MIC (Salmonella typhimurium [4]): > 1020 µg/mL
MIC (Salmonella typhimurium [5]): > 1020 µg/mL
MIC (Salmonella typhimurium [6]): > 1020 µg/mL

SMILES: CCn1cc(C(=O)O)c(=O)c2ccc(C)nc21 [NALIDIXIC ACID]
MIC (Salmonella typhimurium [9]): > 256 µg/mL
MIC (Salmonella typhimurium [10]): 64 µg/mL (≈ 276 µM)

SMILES: CN[C@@H]1[C@H](O[C@H]2[C@H](O[C@H]3[C@H](O)[C@@H](O)[C@H](N=C(N)N)[C@@H](O)[C@@H]3N=C(N)N)O[C@@H](C)[C@]2(O)C=O)O[C@@H](CO)[C@H](O)[C@H]1O [STREPTOMYCIN]
MIC (Salmonella typhimurium [11]): > 1020 µg/mL

Other lines, results leading:

MIC (Salmonella typhimurium [1]): 2400 µg/mL (≈ 4640 µM)
SMILES: CC(=O)O[C@H]1C[C@@]2(C)[C@@H](C[C@@H](O)[C@H]3[C@@]4(C)CC[C@@H](O)[C@@H](C)[C@@H]4CC[C@@]32C)/C1=C(\CCC=C(C)C)C(=O)O [FUSIDIC ACID]

MIC (Salmonella typhimurium [7]): > 1020 µg/mL
MIC (Salmonella typhimurium [8]): > 1020 µg/mL
SMILES: C/C(=C\C(=O)OCCCCCCCCC(=O)O)C[C@@H]1OC[C@H](C[C@@H]2O[C@H]2[C@@H](C)[C@H](C)O)[C@@H](O)[C@H]1O [MUPIROCIN]
